Source: a melting point compilation (Tetko et al.; mined from patent text by program, amines drawn as free bases though some values may be those of a salt)

melting point	Compound
231 to 232 °C	NC(=O)c1cc2ccccc2[nH]1
69 °C	Cc1ccc(Br)c(S(=O)(=O)C(F)(F)F)c1
178 to 180 °C	CC1(C)Oc2cc3nonc3cc2C(NC(=O)NCCCl)C1O (centres undefined)
41 to 43 °C	COc1cccc(C=O)c1OCc1ccccc1
159 to 160 °C	COc1ccc(S(=O)(=O)Nc2cccnc2Nc2ccc(OC)nc2)cc1
115 to 119 °C	N[C@@H](Cc1c[nH]cn1)C(=O)N(N)C(=O)C(CC(=O)N1CCOCC1)Cc1cccc2ccccc12 (some centres undefined)
63 to 64 °C	CC(=O)C(=Cc1cccc(C#N)c1)C(C)=O
47 to 48 °C	COc1cccc(C#N)c1C
150 to 151 °C	O=[N+]([O-])c1ccccc1CN1CCC(c2cc(-c3ccc(Cl)cc3)[nH]n2)CC1
104 to 106 °C	CCCCCC(=O)c1c(CN(CC)CC)nc2cc(OC)c(OC)cc2c1-c1ccc(OC)c(OC)c1
151 to 152 °C	Cc1oc(-c2ccccc2F)nc1CCOc1ccc(CN(O)C(N)=O)cc1
121 to 122 °C	CCC1CCCCN1C(=O)C=Cc1c(-c2ccccc2)nn2ccccc12 (centres undefined)
134 to 135 °C	CCOC1CN(Cc2cccc(OC)c2)Cc2cc(OC)c(O)cc21 (centres undefined)
100 °C	Cc1cccc(N=C(N)N(C)C)c1N1CCOCC1
125 to 126 °C	CC(C(O)C(C)(C)Cc1ccc(OC(F)(F)F)cc1)n1ncnc1S (centres undefined)
88 to 89 °C	CCn1nc(Cc2ccc(N)cc2)oc1=O

melting point	Compound
130 to 135 °C	N#Cc1cccc(Cc2c(-c3ccc(OC(F)F)c(OC4CC4)c3)[nH]c3cn[nH]c(=O)c23)c1
75 to 76 °C	CC(C)(C)c1ccc(C(=O)Cc2ccncc2)cc1
202 to 206 °C	COc1cn(-c2ccc(-n3cccn3)cc2F)nc(-c2ccnn2-c2ccccc2F)c1=O
143 to 144 °C	CC(C)CC1(C(CCN2C(=O)c3ccc(F)cc3C2=O)C(=O)NO)CCN(CCc2ccccc2)C1=O (centres undefined)
139 to 144 °C	C#Cc1cccc(Oc2nc(Oc3cccc(C#C)c3)nc(-c3ccccc3)n2)c1
94 to 105 °C	NC1=NC(c2ccc(OC(F)(F)F)cc2)(c2ccc(F)c(N3C=C(F)C=NC3)c2)C2=NCCCN12 (centres undefined)
228 to 233 °C	CC(C)c1c(C(=O)Nc2ccccc2)c(-c2ccccc2)c(-c2ccc(F)cc2)n1CCCC(O)C(O)CC(=O)N(c1ccccc1)c1ccccc1 (centres undefined)
153 to 155 °C	CCCCCNS(=O)(=O)NC(=O)OCc1ccc(OCCOC)cc1Oc1ncc(C(F)(F)F)cc1Cl
62 to 64 °C	OCCN1CCC(Cc2ccccc2)CC1
100 to 102 °C	O=C(CCCN1CCC(c2ccccc2Cc2ccccc2)CC1)c1ccc(F)cc1
128 to 130 °C	CCOC(=O)c1cc(O)c(-c2ccccc2)c([N+](=O)[O-])c1
92 to 93 °C	CCc1oc(C(O)(C(F)(F)F)C(F)(F)F)nc1-c1ccc(S(C)(=O)=O)cc1
200 to 202 °C	CCCc1nc2c(N)nc3ccccc3c2n1CCCC1(O)CCCCC1
114 to 115 °C	CCN(CC)c1ccc(NC(C)=O)c(C)c1
148 to 150 °C	O=C(OC(c1ccccc1)c1ccccc1)C1=C(Sc2ccccc2)CC2CC(=O)C12 (centres undefined)
191 to 193 °C	CC(=O)c1cc2c(cc1NC(=O)c1sccc1S(=O)(=O)Nc1onc(C)c1Cl)OCO2

Further lines, the molecule ahead of its results:

Compound	melting point
CCNC(=O)C(=O)[C@H](Cc1ccccc1)NC(=O)[C@H](CC(C)C)NC(=O)OC1CCOCC1	140 to 142 °C
CN(C)c1ccc(-c2cc(=O)c(C(=O)O)cn2-c2ccc(O)c(O)c2)cc1	223 to 227 °C
C[N+]1([O-])C(=O)C(F)N=C(c2ccccc2)c2cc(Cl)ccc21 (centres undefined)	167 to 169 °C
CONC(=O)CON1C(=O)c2ccccc2C1=O	179 °C
O=C1OC(=O)c2c3ccccc3cc3cccc1c23	289 to 290 °C
CCCN(CCC)C1Cc2c(C(C)=O)ccc3c2C(CN3)C1 (single isomer, unassigned; (+))	76 to 77 °C
CC(=O)Nc1nsc2ccc(NS(=O)(=O)c3cc(Cl)ccc3Cl)cc12	169 to 172 °C
COC(=O)c1cc(F)c(O)nc1O	208 to 213 °C
CN(C)Cc1nnc2n1-c1sc(Cl)cc1C(c1ccccc1[N+](=O)[O-])=NC2	234 to 236 °C
CN1CCc2nc3ccc(Cl)cc3c(Nc3ccccc3)c2C1	137 to 139 °C
O=C(c1ccc(-c2ncn[nH]2)cc1Cl)N1Cc2cccn2Cc2ccccc21	174 to 177 °C
Cc1ccc(C)n1-c1c(SC(F)(F)F)c(C#N)nn1-c1c(Cl)cc(C(F)(F)F)cc1Cl	142 to 144 °C
CN1C(=O)CCC2=C1CCc1ccc(F)cc12	122 °C
Oc1ccc2c(c1)SCCc1c-2n(CCCCCN2CCCCC2)c2ccccc12	130 °C
CNC(=O)CCN1CCC(C(O)(c2ccc(F)cc2)c2ccc(F)cc2)CC1	127 to 129 °C
N#Cc1ccc(NC(=O)CBr)cc1	166 to 168 °C
OC(CCl)CN(CC(O)CCl)c1ccccc1 (centres undefined)	60 °C
CN(C=O)c1cc([N+](=O)[O-])cc([N+](=O)[O-])c1	93 to 94 °C
COc1ccc2[nH]cc(CC(=O)N3C[C@@H]4[C@H](C3)[C@@](O)(c3ccccc3OC)[C@H](O)CC4(c3ccccc3)c3ccccc3)c2c1 (racemic)	204 to 206 °C
CCOC(=O)c1ccc(-c2cnc3c(c2)N(Cc2ccccc2)CCN3)cc1	178 to 179 °C
CC(Br)c1ccc2onc(-c3ccc(Cl)cc3)c2c1 (centres undefined)	111 to 116 °C
CC(=O)NCC(=O)NCC(=O)N1CC1C#N (centres undefined)	70 to 76 °C
CC(=O)N1CCC(c2nn(-c3ccccc3)c3cc(F)ccc23)CC1	126 to 128 °C

Compound	melting point
CCCCOc1cc(CCC(=O)O)n(Cc2ccc(Cl)cc2Cl)n1	123 to 124 °C
CC(=O)Nc1cc(-c2c(-c3cccc(C)c3)nc3cccnn23)ccn1	227 to 228 °C
COc1cccc2sc(-c3ccc(C(F)(F)F)cc3)nc12	104 °C
CS(=O)(=O)c1ccc(Oc2cc(OCc3cccc(Cl)n3)c3[nH]c(C(N)=O)cc3c2)cc1	259 to 260 °C
COc1ccc(Oc2ccn3nc(-c4ccccc4)c(-c4ccc(=O)n(C(C)C)n4)c3c2)nc1	148 to 150 °C
CC(=O)Nc1ccc(C=C2c3ccccc3CCc3ccccc32)cc1	135 °C
Nc1cnc2cccnc2c1Cl	188 to 190 °C
CC(C)(C)OC(=O)Nc1ccc(-c2ccc(OCc3ccccc3)nc2)cc1[N+](=O)[O-]	119 to 122 °C
CCCCC(C)c1ccc(C=Cc2cc3cc4ccccc4cc3s2)cc1 (centres undefined)	280 to 282 °C
CCCCCS(=O)(=O)NC(=O)/C=C/c1cc(OC(C)C)nn1Cc1ccc(C(F)(F)F)cc1Cl	139 to 140 °C
O=C(NCc1ccc(Cl)cc1)c1coc2ccc(C#CCO)cc2c1=O	182 to 183 °C
CCCCCCCCCCCCCCCCCCN(C(=O)OC(C)(C)C)c1ccc(CCC(=O)O)cc1	46 to 48 °C
CCN(CC)C(=O)c1cccs1	50 to 52 °C
COc1ccc(S(=O)(=O)Nc2cccnc2Nc2cccc(OC)c2)cc1	161 to 162 °C
CC(C(=O)O)c1ccc(C(=O)c2cccs2)c(Cl)c1 (centres undefined)	82.5 °C
Cc1cccc(C(=O)OC2CCN(Cc3ccccc3)CC2)c1	45 to 46 °C
C[C@@H](O)C(=O)NC[C@H]1CCc2ccc(S(=O)(=O)c3ccccc3)cc2O1	130 to 132 °C
COC(=O)C1=Cc2cc(-c3ccc(C(C)(C)C)cc3)ccc2S(=O)(=O)CC1	170 to 172 °C
OC(COCc1ccccc1)C(O)COCc1ccccc1 (single isomer, unassigned; (+))	44 to 45 °C
CC(C)c1cccc(C(C)C)c1OC(=O)c1ccccc1	80 to 81 °C
C[C@@H]1[C@H](O[Si](C)(C)C(C)(C)C)[C@@H](C)C(S(=O)(=O)c2ccccc2)=C[C@H]1O	107 to 108 °C
CCCN1C(=O)N2CCN=C2c2c1nc(C1CCCC1)n2C	246 to 247 °C
CC(C)NC1=NS(=O)(=O)c2sc(Br)cc2N1	279 °C

Compound	melting point
CCCCSc1c[nH]nc1C1CN2CCC1CC2 (centres undefined)	162 to 164 °C
Cc1ccccc1[PH](=O)c1ccccc1C	91.3 °C
C=CCCCCCCCCC(=O)N1CCN(c2cc(N)nc(N)n2)CC1	100 to 104 °C
CS(=O)(=O)c1ccc(-n2cc(-c3ccc(Br)cc3)nc2-c2ccc(Cl)cc2)cc1	145 to 148 °C
CCOc1c(SC(F)(F)F)c(C#N)nn1-c1c(Cl)cc(C(F)(F)F)cc1Cl	106 °C
Cc1ccc2sc3ncc(C(=O)Nc4nnn[nH]4)c(=O)n3c2c1	> 300 °C
COc1nn(-c2cccc(N3CCCC3=O)c2)c(=O)n(Cc2ccc(Cl)cc2)c1=O	91 to 93 °C
COc1nc2cccc(C=O)c2nc1OC	137 to 140 °C
CC(C)n1cc(C(=O)NCc2ccc(Cl)cc2)c(=O)c2cc(CCCO)sc21	84 to 92 °C
CON(C)Cc1nc2c(N)nc3cc(OCc4ccccc4)ccc3c2n1CC1CCOCC1	159 to 161 °C
O=Cc1c(OCCCCC(=O)O)ccc(C(=O)O)c1O	165 to 166 °C
C1=CCN(C(c2ccccc2)c2ccccc2)C1	90 to 91 °C
COC1CN(c2ccc(N3C[C@H](CNC(C)=O)OC3=O)cc2F)C1	160 to 162 °C
O=C1NC(=O)C(Cc2ccc(OCc3nc4ncccc4[nH]3)cc2)S1 (centres undefined)	247 to 248 °C
CSC[C@H]1NC(=O)[C@@H](Cc2ccccc2)NC1=O	246 to 247 °C
Nc1ccc(Cl)cc1Cc1ccccc1Cl	64 to 65 °C
CC(C)(N)c1ccc(-c2nc(Nc3cccc(CCO)c3)ncc2Cl)cc1	184 to 185 °C
CN(c1cccc2cc(-c3ncc(CCC(=O)NN)s3)[nH]c12)S(=O)(=O)c1cccs1	224 to 226 °C
Cc1oc(-c2cccs2)nc1CCOc1ccc(N)cn1	120 to 122 °C
C[C@@H]1CC(C)(C)C[C@@]2(C1)[C@@H](C)CC(=O)[C@]2(C)O (relative stereo)	73 to 74 °C
O=C([C@H]1CN(Cc2ccccc2)CCN1C(=O)NC1CCCCC1)N(CCCn1ccnc1)Cc1ccccc1	89.1 °C
